This note sets out measurements from patent publication US12605354B2, “Azelaic acid esters in the treatment or prevention of dyslipidemia and associated conditions” (NEW FRONTIER LABS, LLC, priority 2020, dated 2026).

The subject of the data set is overweight to obese males. The data set can be described thus: 21-day oral DEA study: tolerability, adverse effects. The data set is classed as in vivo, human. The protocol:
The subjects were overweight to obese males with body mass indices (BMIs) ranging from 27.2 to 43.6 kg/m^2, glycated hemoglobin A1c (HbA1c) of 5.0-6.2% and insulin levels of 8.8-52 μU/mL. The study was conducted by Clinical Trials of Texas, Inc. in San Antonio, TX. The cohort represented a population at risk for the development of T2D. The study was restricted to male participants to control for the variability of insulin sensitivity associated with the menstrual cycle. The subjects received 21 daily oral doses (“q1d”) of 1 mg/kg DEA. An OGTT, in which 75 grams of glucose in a total volume of 300 mL was administered orally to subjects, was performed on Day 0 and again on Day 21 and glucose measurements performed at −30, −5 and 0 min, insulin measurements at −30 and 0 min, and both glucose measurements and insulin measurements at 30, 60, 90, 120 and 180 minutes, where “0 min” is the time at which the glucose solution was administered. The 180-minute time point was selected to gain an early insight into the possible signal of drug action. Blood lipid levels (triglycerides, cholesterol, HDL, non-cholesterol HDL and LDL) were measured before the onset of treatment on Day 0 and again on Day 21. The error of the assays was <5% [36].

Entries after “also recorded” stand apart in the source; their conditions may differ.

With `CCOC(=O)CCCCCCCC(=O)OCC` [DEA, diethyl azelate], for the setting “17 subjects, 21 daily oral doses of 1 mg/kg, 1 mg/kg”, the “tolerability of daily oral DEA” value is given as “well tolerated by all study subjects”. For the same compound, for the setting “21-day study”, the Hypoglycemia entry is reported as “Neither metformin nor DEA administration as presented herein induced hypoglycemia; also recorded: no effect” and the Side effects entry is listed as “mild transient diarrhea (1/17 subjects)”. Further, the adverse effects entry (first week of treatment, no other adverse effects reported) is recorded as “only one subject experienced transient mild diarrhea”.
